The experiment concerns the target T1, Ephrin type-B receptor 1 (Rattus norvegicus, UniProt P09759).
T1 sequence (P09759 whole entry): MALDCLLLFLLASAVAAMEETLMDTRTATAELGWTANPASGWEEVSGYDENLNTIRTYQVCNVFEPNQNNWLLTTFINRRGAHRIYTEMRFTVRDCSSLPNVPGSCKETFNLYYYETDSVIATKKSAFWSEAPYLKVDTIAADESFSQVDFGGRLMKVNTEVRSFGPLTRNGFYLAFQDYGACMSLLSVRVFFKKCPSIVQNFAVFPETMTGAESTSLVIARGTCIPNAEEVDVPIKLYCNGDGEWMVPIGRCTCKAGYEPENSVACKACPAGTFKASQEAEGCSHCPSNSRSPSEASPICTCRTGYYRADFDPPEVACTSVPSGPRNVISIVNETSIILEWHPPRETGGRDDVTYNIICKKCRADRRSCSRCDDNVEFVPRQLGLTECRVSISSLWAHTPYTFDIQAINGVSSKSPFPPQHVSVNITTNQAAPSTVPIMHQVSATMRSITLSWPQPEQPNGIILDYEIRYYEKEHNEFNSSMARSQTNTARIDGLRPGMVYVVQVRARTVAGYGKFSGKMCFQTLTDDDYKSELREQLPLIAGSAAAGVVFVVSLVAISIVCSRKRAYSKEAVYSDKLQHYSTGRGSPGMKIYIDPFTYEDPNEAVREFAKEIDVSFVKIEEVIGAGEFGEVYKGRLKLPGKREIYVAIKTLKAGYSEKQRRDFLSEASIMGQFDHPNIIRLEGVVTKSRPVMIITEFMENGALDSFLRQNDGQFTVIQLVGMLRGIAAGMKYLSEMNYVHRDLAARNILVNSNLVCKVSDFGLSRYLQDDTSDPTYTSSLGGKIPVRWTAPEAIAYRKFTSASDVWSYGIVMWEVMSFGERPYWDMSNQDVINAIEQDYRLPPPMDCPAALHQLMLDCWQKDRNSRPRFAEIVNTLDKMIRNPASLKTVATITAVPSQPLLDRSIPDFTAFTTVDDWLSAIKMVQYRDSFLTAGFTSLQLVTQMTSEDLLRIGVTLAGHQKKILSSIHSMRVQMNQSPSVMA
Kind of experiment: Displacement of biotinylated ephrin-B1-Fc from rat EphB1 Fc preincubated for 1 hr followed by ephrin-B1-FC addition and measured after 4 hrs by ELISA.

The source of these data is ChEMBL document CHEMBL4680187, “Optimization of EphA2 antagonists based on a lithocholic acid core led to the identification of UniPR505, a new 3α-carbamoyloxy derivative with antiangiogenetic properties” (Eur J Med Chem, 2020).

For `CCNC(=O)O[C@@H]1CC[C@@]2(C)[C@H](CC[C@@H]3[C@@H]2CC[C@]2(C)[C@@H]([C@H](C)CCC(=O)N[C@H](CC(=O)O)Cc4c[nH]c5ccccc45)CC[C@@H]32)C1`, the IC50 – broadly, the concentration that inhibits the measured activity by half – is above 30 µM.
